Laboratory results as given in ChEMBL document CHEMBL5584239, “Discovery of novel quinoline scaffold selective estrogen receptor degraders (SERDs) for treatment of ER positive breast cancer with enhanced antiproliferative bioactivity through immunogenic cell death (ICD) effects” (Eur J Med Chem, 2024).
Activity calls are given as the source filed them. No cut-off for these calls is given here.

Assays:
[1] = tested on: Ishikawa; experiment: Antiproliferative activity against human Ishikawa cells at 20 uM incubated for 3 days by MTT assay relative to control; type: functional; details: 72 h, time 3 day
[2] = biological target: T1, Estrogen receptor (Homo sapiens) (UniProt P03372); experiment: Induction of estrogen receptor degradation in estradiol-stimulated human MCF7 cells assessed as decrease in GREB1 mRNA level incubated for 24 hrs by RT-qPCR analysis; type: cell-based; details: dose 1-10 µM
T1 sequence (whole entry): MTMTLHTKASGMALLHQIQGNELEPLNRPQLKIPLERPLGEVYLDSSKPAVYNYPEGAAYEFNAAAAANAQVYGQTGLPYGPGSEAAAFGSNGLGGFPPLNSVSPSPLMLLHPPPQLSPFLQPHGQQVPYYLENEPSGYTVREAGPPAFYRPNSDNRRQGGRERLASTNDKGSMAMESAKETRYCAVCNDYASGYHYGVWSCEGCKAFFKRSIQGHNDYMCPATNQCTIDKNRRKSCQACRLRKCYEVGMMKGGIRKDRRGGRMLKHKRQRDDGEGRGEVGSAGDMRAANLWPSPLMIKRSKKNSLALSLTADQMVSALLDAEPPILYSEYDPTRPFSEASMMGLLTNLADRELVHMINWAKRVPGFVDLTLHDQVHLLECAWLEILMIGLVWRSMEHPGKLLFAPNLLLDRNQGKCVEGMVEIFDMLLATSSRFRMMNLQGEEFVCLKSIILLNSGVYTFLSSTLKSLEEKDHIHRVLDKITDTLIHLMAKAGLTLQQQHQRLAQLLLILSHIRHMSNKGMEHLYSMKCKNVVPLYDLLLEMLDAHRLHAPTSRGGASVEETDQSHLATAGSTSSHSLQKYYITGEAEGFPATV

[3] = biological target: T1, Estrogen receptor (Homo sapiens); experiment: Induction of estrogen receptor degradation in estradiol-stimulated human MCF7 cells assessed as decrease in TFF1 mRNA level incubated for 24 hrs by RT-qPCR analysis; type: cell-based; details: dose 1-10 µM
[4] = biological target: T1, Estrogen receptor (Homo sapiens); experiment: Induction of estrogen receptor degradation in human MCF7 cells expressing ERE-luciferase at 10 uM incubated for 24 hrs by luminescence based analysis; type: cell-based
[5] = Tmax in rat at 5 mg/kg, iv measured for 1 to 24 hrs by LC-MS analysis; type: ADME, organism-based; details: in vivo, time 1-24 hrs
[6] = Cmax in rat at 5 mg/kg, iv measured for 1 to 24 hrs by LC-MS analysis; type: ADME, organism-based; details: in vivo, time 1-24 hrs
[7] = C0 in rat at 5 mg/kg, iv measured for 1 to 24 hrs by LC-MS analysis; type: ADME, organism-based; details: in vivo, time 1-24 hrs
[8] = AUC (0 to t) in rat at 5 mg/kg, iv measured for 1 to 24 hrs by LC-MS analysis; type: ADME, organism-based; details: in vivo, time 1-24 hrs
[9] = AUC (0 to infinity) in rat at 5 mg/kg, iv measured for 1 to 24 hrs by LC-MS analysis; type: ADME, organism-based; details: in vivo, time 1-24 hrs
[10] = Clearance in rat at 5 mg/kg, iv measured for 1 to 24 hrs by LC-MS analysis; type: ADME, organism-based; details: in vivo, time 1-24 hrs
[11] = Tmax in rat at 20 mg/kg, po measured for 1 to 24 hrs by LC-MS analysis; type: ADME, organism-based; details: in vivo, time 1-24 hrs
[12] = Cmax in rat at 20 mg/kg, po measured for 1 to 24 hrs by LC-MS analysis; type: ADME, organism-based; details: in vivo, time 1-24 hrs
[13] = Oral bioavailability in rat at 20 mg/kg measured for 1 to 24 hrs by LC-MS analysis; type: ADME, organism-based; details: in vivo, time 1-24 hrs
[14] = tested on: MCF7; experiment: Synergistic antiproliferative activity against human MCF7 cells at 0.1 to 10000 nM incubated for 5 days in presence of Ribociclib by MTT assay; type: functional, cell-based; details: dose 0.1-10000 nM, time 5.0 day
[15] = tested on: MCF7; experiment: Induction of cell cycle arrest at G0/G1 phase in human MCF7 cells at 10 uM incubated for 24 hrs by PI/RNase staining based flow cytometry (reference value: 53.5 +/- 1.96 %); type: functional
[16] = tested on: MCF7; experiment: Induction of endoplasmic reticulum stress effect in human MCF7 cells assessed as change in calnexin level at 10 uM incubated for 3 to 24 hrs by Western blot analysis; type: functional, cell-based; details: time 3-24 hrs
[17] = tested on: MCF7; experiment: Induction of endoplasmic reticulum stress effect in human MCF7 cells assessed as change in ATF4 level at 10 uM incubated for 3 to 24 hrs by Western blot analysis; type: functional, cell-based; details: time 3-24 hrs
[18] = tested on: MCF7; experiment: Induction of endoplasmic reticulum stress effect in human MCF7 cells assessed as change in EIF-2alpha level at 10 uM incubated for 3 to 24 hrs by Western blot analysis; type: functional, cell-based; details: time 3-24 hrs
[19] = tested on: MCF7; experiment: Induction of endoplasmic reticulum stress effect in human MCF7 cells assessed as change in CHOP level at 10 uM incubated for 3 to 24 hrs by Western blot analysis; type: functional, cell-based; details: time 3-24 hrs
[20] = tested on: MCF7; experiment: Induction of endoplasmic reticulum stress effect in human MCF7 cells assessed as change in CHOP level at 10 uM incubated for 24 hrs by immunofluorescence based analysis; type: functional, cell-based
[21] = tested on: MCF7; experiment: Induction of immunogenic cell death in human MCF7 cells assessed as CRT translocation at 10 uM by Western blot analysis; type: functional, cell-based
[22] = tested on: MCF7; experiment: Induction of immunogenic cell death in human MCF7 cells assessed as CRT translocation at 10 uM by FITC staining based flow cytometry; type: functional
[23] = tested on: MCF7; experiment: Induction of immunogenic cell death in human MCF7 cells assessed as HSP90 exposure at 10 uM by Western blot analysis; type: functional, cell-based
[24] = tested on: MCF7; experiment: Induction of immunogenic cell death in human MCF7 cells assessed as HMGB1 release from nucleus at 10 uM by FITC staining based flow cytometry; type: functional
[25] = tested on: MCF7; experiment: Antitumor activity against human MCF7 cells xenografted in nude mouse model assessed as tumor growth inhibition at 60 mg/kg, po administered daily via gavage for 30 days; type: functional, organism-based; details: time 30.0 day
[26] = tested on: MCF7; experiment: Antitumor activity against human MCF7 cells xenografted in nude mouse model at 60 mg/kg, po administered daily via gavage for 30 days in presence of ribociclib; type: functional, organism-based; details: time 30.0 day
[27] = Toxicity in nude mouse model xenografted with human MCF7 cells assessed as body weight loss at 60 mg/kg, po administered daily via gavage for 30 days; type: organism-based; details: in vivo, 720 h, time 30 day
[28] = Toxicity in nude mouse model xenografted with human MCF7 cells assessed as morphological change in spleen at 60 mg/kg, po administered daily via gavage for 30 days by H and E staining based analysis; type: organism-based; details: in vivo, 720 h, time 30 day
[29] = Toxicity in nude mouse model xenografted with human MCF7 cells assessed as morphological change in kidney at 60 mg/kg, po administered daily via gavage for 30 days by H and E staining based analysis; type: organism-based; details: in vivo, 720 h, time 30 day
[30] = tested on: MCF7; experiment: Antitumor activity against human MCF7 cells xenografted in nude mouse model assessed as reduction in Ki67 level at 60 mg/kg, po administered daily via gavage for 30 days in presence of ribociclib by IHC analysis; type: functional, organism-based; details: time 30.0 day
[31] = tested on: MCF7; experiment: Antitumor activity against human MCF7 cells xenografted in nude mouse model assessed as reduction in ER level at 60 mg/kg, po administered daily via gavage for 30 days in presence of ribociclib by IHC analysis; type: functional, organism-based; details: time 30.0 day
[32] = tested on: MCF7; experiment: Antitumor activity against human MCF7 cells xenografted in nude mouse model assessed as reduction in PR level at 60 mg/kg, po administered daily via gavage for 30 days in presence of ribociclib by IHC analysis; type: functional, organism-based; details: time 30.0 day
[33] = tested on: Uterus; experiment: Effect on immature Sprague-Dawley rat uterus assessed as reduction in uterine wet weight at 60 mg/kg, po qd for 2 days by H and E staining based analysis; type: functional, organism-based; details: time 2.0 day

## CCc1ccccc1C(=O)c1cnc2cc(O)ccc2c1Oc1ccc(/C=C/C(=O)O)cc1
[1]
  inhibition at 20 µM: 14%
[2]
  Activity: Dose-Dependent Effect
[3]
  Activity: Dose-Dependent Effect
[4]
  Activity: Active
[5]
  Tmax: 4.98 min
[6]
  Cmax: 10.4 µg/mL
[7]
  C0: 31.3 µg/mL
[8]
  AUC(0-t): 3.05 µg·h/mL
[9]
  AUC(0-inf): 3.05 µg·h/mL
[10]
  clearance: 1.67 L/h/kg
[11]
  Tmax: 15 min
[12]
  Cmax: 0.501 µg/mL
[13]
  bioavailability: 5.32%
[14]
  Activity: Active
[15]
  Activity: 59.7%
[16]
  Activity: Active
[17]
  Activity: Active
[18]
  Activity: Active
[19]
  Activity: Active
[20]
  Activity: Active
[21]
  Activity: Active
[22]
  Activity: Active
[23]
  Activity: Active
[24]
  Activity: Active
[25]
  inhibition: Active
[26]
  Activity: Active
[27]
  Activity: Non-Toxic
[28]
  Activity: Non-Toxic
[29]
  Activity: Non-Toxic
[30]
  Activity: Active
[31]
  Activity: Active
[32]
  Activity: Active
[33]
  Activity: inactive
